Measurements as given in the NIST ThermoML archive (doi:10.1016/j.fluid.2005.08.018).
“And” between values parts separate entries of the source, which are not always exact repeats. Identical values can stand only once.

Test: activity coefficient (dimensionless); of the first substance listed, at infinite dilution; xn = mol fraction of the nth substance listed
Settings: Liquid, x1 = 0

CCCCO [butan-1-ol] + O
Settings | activity coefficient
273.35 K, headspace analysis | 32.6
283.15 K, headspace analysis | 40.4
293.15 K, headspace analysis | 48.4
303.15 K, comparative tensimetry | 53.4
308.15 K, comparative tensimetry | 57.2
313.15 K, comparative tensimetry | 58.9
318.15 K, comparative tensimetry | 60.2
323.15 K, comparative tensimetry | 61.5
323.15 K, headspace analysis | 58.7 and 59.4
328.15 K, comparative tensimetry | 62.8
333.15 K, comparative tensimetry | 63.4
372.15 K, circulating still method | 56.1

CCO [ethanol] + O
Settings | activity coefficient
273.35 K, headspace analysis | 2.54
283.15 K, headspace analysis | 3.13
303.15 K, comparative tensimetry | 4.14
308.15 K, comparative tensimetry | 4.43
313.15 K, comparative tensimetry | 4.66
318.15 K, comparative tensimetry | 4.85
323.15 K, comparative tensimetry | 5.03
328.15 K, comparative tensimetry | 5.2
333.15 K, comparative tensimetry | 5.3
358.15 K, circulating still method | 5.9
363.15 K, circulating still method | 6
368.15 K, circulating still method | 6.1
372.15 K, circulating still method | 6.2

CO [methanol] + O
Settings | activity coefficient
273.35 K, headspace analysis | 1.23
283.15 K, headspace analysis | 1.4
293.15 K, headspace analysis | 1.55
303.15 K, comparative tensimetry | 1.71
308.15 K, comparative tensimetry | 1.8
313.15 K, comparative tensimetry | 1.88
318.15 K, comparative tensimetry | 1.95
323.15 K, comparative tensimetry | 2.02
328.15 K, comparative tensimetry | 2.09
333.15 K, comparative tensimetry | 2.16
358.15 K, circulation still method | 2.31
363.15 K, circulation still method | 2.38
368.15 K, circulation still method | 2.41
372.15 K, circulation still method | 2.4

CCCCCO [pentan-1-ol] + O
Settings | activity coefficient
273.35 K, headspace analysis | 121
283.15 K, headspace analysis | 156
293.15 K, headspace analysis | 184
303.15 K, inert gas stripping | 203
313.15 K, inert gas stripping | 221
323.15 K, inert gas stripping | 230
333.15 K, Rayleigh distillation | 221
343.15 K, Rayleigh distillation | 206
353.15 K, circulating still method | 203
363.15 K, circulating still method | 181
371.15 K, circulating still method | 169

CCCO [propan-1-ol] + O
Settings | activity coefficient
273.35 K, headspace analysis | 8.9
283.15 K, headspace analysis | 11.2
293.15 K, headspace analysis | 13.5
303.15 K, comparative tensimetry | 15.3
308.15 K, comparative tensimetry | 16.1
313.15 K, comparative tensimetry | 16.7
318.15 K, comparative tensimetry | 17.5
323.15 K, comparative tensimetry | 18.1
328.15 K, comparative tensimetry | 18.6
333.15 K, comparative tensimetry | 19
358.15 K, circulating still method | 20.1
363.15 K, circulating still method | 19.5
368.15 K, circulating still method | 18.7
372.15 K, circulating still method | 18.9
